PMC5764959, “Signaling ammonium across membranes through an ammonium sensor histidine kinase” (Nature Communications, 2018)

Experiments:
[1] = molecular target: T1, Ks-Amt5 (ammonium sensor histidine kinase, HK domain) (Candidatus Kuenenia stuttgartensis, UniProt Q1Q357); test: SAXS, compaction of the HK domain on nucleotide addition; assay type: binding
T1 construct: gene amtb; Ks-Amt5^426–679 (soluble HK domain)

[2] = molecular target: T1, Ks-Amt5 (ammonium sensor histidine kinase, HK domain); test: isothermal titration calorimetry (also SAXS and […] autophosphorylation); assay type: binding
[3] = molecular target: T1, Ks-Amt5 (ammonium sensor histidine kinase, HK domain); test: isothermal titration calorimetry; assay type: binding
[4] = molecular target: T2, Ks-Amt5 (ammonium sensor/transducer) (Candidatus Kuenenia stuttgartensis, UniProt Q1Q357); test: microscale thermophoresis (weak; no electrogenic response); assay type: binding; set-up: gene amtb; Ks-Amt5
[5] = molecular target: T2, Ks-Amt5 (ammonium sensor/transducer); test: biochemical; set-up: gene amtb
[6] = molecular target: Ks-Amt5 (kust_3690), full-length ammonium sensor histidine kinase (Candidatus Kuenenia stuttgartiensis); test: SEC; Superdex 200 26/60; buffer C (20 mM HEPES/NaOH pH 7.5 or 20 mM Tris/HCl pH 8.0, 100 mM NaCl) with 5-10 % glycerol and detergent; 4 °C; self-association of the detergent-solubilized protein
[7] = molecular target: Ks-Amt5 (kust_3690), full-length ammonium sensor histidine kinase (Candidatus Kuenenia stuttgartiensis); test: SAXS; full-length Ks-Amt5 in 0.09 % CYMAL-5; batch or SEC-SAXS (Superdex 200 10/300); buffer C with 5 % glycerol; 20 °C; molecular weight from forward scattering I(0)
[8] = molecular target: Ks-Amt5 (kust_3690), full-length ammonium sensor histidine kinase (Candidatus Kuenenia stuttgartiensis); test: crystal structure; full-length Ks-Amt5; space group P6_(3); 1.98 Å; only the Amt domain (residues 1-405) modelled, HK domain disordered

T1 sequence (Q1Q357 entry or part of it): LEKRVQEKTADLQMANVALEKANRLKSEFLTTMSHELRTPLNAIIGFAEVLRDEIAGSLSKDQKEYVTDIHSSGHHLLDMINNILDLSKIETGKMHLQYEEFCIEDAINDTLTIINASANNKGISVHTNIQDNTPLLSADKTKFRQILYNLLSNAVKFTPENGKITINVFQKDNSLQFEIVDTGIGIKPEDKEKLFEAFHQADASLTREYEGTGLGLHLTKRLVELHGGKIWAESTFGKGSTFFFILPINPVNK
T2 sequence (Q1Q357 1-679): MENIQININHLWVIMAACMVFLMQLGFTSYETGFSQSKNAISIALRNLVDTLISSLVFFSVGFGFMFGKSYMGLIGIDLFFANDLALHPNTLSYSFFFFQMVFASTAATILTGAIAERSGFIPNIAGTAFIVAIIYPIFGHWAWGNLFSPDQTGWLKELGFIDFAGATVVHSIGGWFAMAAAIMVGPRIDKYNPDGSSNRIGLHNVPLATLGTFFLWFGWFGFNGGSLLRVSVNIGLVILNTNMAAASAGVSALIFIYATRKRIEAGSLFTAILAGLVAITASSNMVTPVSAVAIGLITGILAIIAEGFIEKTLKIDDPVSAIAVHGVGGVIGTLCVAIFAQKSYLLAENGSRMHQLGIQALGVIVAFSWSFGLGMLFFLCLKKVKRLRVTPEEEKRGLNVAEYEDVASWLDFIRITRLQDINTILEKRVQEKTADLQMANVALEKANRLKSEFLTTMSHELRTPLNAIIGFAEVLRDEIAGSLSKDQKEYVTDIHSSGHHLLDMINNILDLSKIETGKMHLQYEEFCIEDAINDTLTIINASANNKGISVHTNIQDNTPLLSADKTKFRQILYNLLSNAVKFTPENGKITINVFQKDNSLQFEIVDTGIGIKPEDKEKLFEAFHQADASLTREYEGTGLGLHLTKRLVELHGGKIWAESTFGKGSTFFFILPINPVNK

Nc1ncnc2c1ncn2[C@@H]1O[C@H](COP(=O)(O)OP(=O)(O)CP(=O)(O)O)[C@@H](O)[C@H]1O [APPCP]
SAXS, compaction of the HK domain on nucleotide addition [1]: change toward a more compact and less-flexible structure when either APPCP or ATP are added to the HK domain

Nc1ncnc2c1ncn2[C@@H]1O[C@H](COP(=O)(O)OP(=O)(O)OP(=O)(O)O)[C@@H](O)[C@H]1O [ATP]
Kd [2]: 11.16 ± 0.03 µM

Nc1ncnc2c1ncn2[C@@H]1O[C@H](CO[P@](=O)(O)O[P@](=O)(O)O[P@@](=O)(O)S)[C@@H](O)[C@H]1O [ATPγS]
Kd [3]: 36.74 ± 0.05 µM

CN [MA, methylammonium]
Kd [4]: 2.35 ± 0.44 mM

N [NH4^+]
Kd [5]: 41 ± 24 µM

Ks-Amt5 (kust_3690), full-length ammonium sensor histidine kinase (natural protein)
stoichiometry N [6]: 3 | stoichiometry N [7]: 3 | stoichiometry N [8]: 3
